Results published in article PMC9503946 (Pharmaceuticals, 2022).
“And” between values parts separate entries of the source, which are not always exact repeats. Equal values may be shown once.

Tests used:
in vitro = conditions: human
[1] = molecular target: recombinant SARS-CoV-1 nucleocapsid protein (Severe acute respiratory syndrome coronavirus, UniProt P59595); experiment: biochemical; type: binding
MRC-5 cells = conditions: 72 h; 0.003-100 µM
[2] = molecular target: recombinant SARS-CoV-2 nucleocapsid protein (full-length NP, aa 1–419) (Severe acute respiratory syndrome coronavirus 2, UniProt P0DTC9); experiment: biochemical; type: binding
A549 cells = conditions: 72 h; 0.003-100 µM

Chain of recombinant SARS-CoV-1 nucleocapsid protein (P59595 whole entry, looked up): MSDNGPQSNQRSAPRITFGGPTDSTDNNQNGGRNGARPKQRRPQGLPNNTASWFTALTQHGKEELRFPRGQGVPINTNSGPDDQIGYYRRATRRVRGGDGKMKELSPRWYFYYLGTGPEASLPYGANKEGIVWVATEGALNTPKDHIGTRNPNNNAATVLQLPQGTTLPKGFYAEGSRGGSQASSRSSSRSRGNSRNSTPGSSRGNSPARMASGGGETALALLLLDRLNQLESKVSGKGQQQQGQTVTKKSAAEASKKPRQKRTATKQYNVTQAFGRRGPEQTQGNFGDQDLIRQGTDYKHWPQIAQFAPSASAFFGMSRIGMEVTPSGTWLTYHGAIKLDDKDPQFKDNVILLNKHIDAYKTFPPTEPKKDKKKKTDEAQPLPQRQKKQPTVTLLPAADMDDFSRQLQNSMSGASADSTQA

Structure (SMILES) | IC50 (in vitro) | Kd [1] | IC50 (cytotoxicity) (MRC-5 cells) | Kd [2] | IC50 (cytotoxicity) (A549 cells)
Cc1ccc2ccccc2c1COc1ccc2c(C)c(CC(=O)N3CCC4(O)CCCCC4C3)c(=O)oc2c1C (stereo not drawn) [Compound 1, 3-[2-(4a-hydroxy-decahydroisoquinolin-2-yl)-2-oxoethyl]-4,8-dimethyl-7-[(2-methylnaphthalen-1-yl)methoxy]-2H-chromen-2-one] | 51 ± 8.13 µM | 14600 ± 440 nM | no toxicity | – | –
Cc1c(CC(=O)N2CCC3(O)CCCCC3C2)c(=O)oc2cc3occ(-c4ccc5ccccc5c4)c3cc12 (stereo not drawn) [Compound 2, 6-[2-(4a-hydroxy-decahydroisoquinolin-2-yl)-2-oxoethyl]-5-methyl-3-(naphthalen-2-yl)-7H-furo [3,2-g]chromen-7-one] | – | – | – | 22.8 ± 1.52 µM | –
Cc1c(CC(=O)N2CCC3(O)CCCCC3C2)c(=O)oc2c(C)c3occ(-c4ccc5ccccc5c4)c3cc12 (stereo not drawn) [Compound 4, 6-[2-(4a-hydroxy-decahydroisoquinolin-2-yl)-2-oxoethyl]-5,9-dimethyl-3-(naphthalen-2-yl)-7H-furo[3,2-g]chromen-7-one] | – | 674 nM and < 1000 nM | – | – | no toxicity
